Each structure is given as a SMILES string.

In the first experiment the test system is Helicoverpa armigera. The experiment can be described thus: Helicoverpa armigera diet incorporation method. The experiment is classed as in vivo. The settings on record: third instar larvae, dead and moribund combined, 96 h after release. As to the method:
(§1) Test Solutions were Prepared According to the Procedure Described Herein Below (500 PPM):
(§2) • 1. Eppendorf Vortex mixer (ThermoMixer C) and 1.5 mL Eppendorf tubes • 2. Zirconia (Zirconium-Yttrium) beads having diameter of 0.8 to 1.0 mm • 3. Microscope • 4. Beaker 100 mL • 5. Micro-pipette Reagents: • 1. Surfactant Solution • 2. De-mineralized (DM) Water • 1. Weigh 10 mg of the compound of the present invention to be tested in an Eppendorf Tube. • 2. Add 200 mg of the Surfactant Solution into the tube. • 3. Add 600 mg of Zirconia beads into the above mixture. • 4. Fix the tube in Eppendorf Vortex mixer and start vortexing at 2000 rpm. • 5. Mix on Vortex mixer for 30 minutes. After 30 minutes, observe the sample over a microscope at 400× resolution. • 6. If the Maximum particle size is more than 5 μm or average particle size is more than 2 μm or the particle size distribution is uneven, continue vortexing for another 30 minutes and again check the particle size using the microscope. Continue till the average particle size is below 2 microns. • 7. When the required particle size is achieved, add 1.0 mL DM water into the tube, close the cap, shake the tube thoroughly and transfer the contents, along with the beads, into a beaker. • 8. To rinse the tube, add another 1.0 mL of DM water into the tube, close the cap, shake well and transfer this into the same beaker. • 9. Repeat Step no. 8 one more time so that the tube is rinsed well and the compound of the present invention to be tested is transferred to the beaker. • 10. Add 16.8 mL of DM water into the beaker and stir well. • 11. The homogeneous dispersion can then be decanted into a glass vial, immediately, to separate the Zirconia beads. • 12. Immediately use this sample for biological testing. • 13. Further dilutions can be prepared by taking appropriate quantity of the aliquot of Step 10, immediately after stirring, and diluting as per requirement. The sample solution must be well mixed just before biological testing.
Diet incorporation method was used, in which and semi-synthetic diet was incorporated into the test solution when the temperature is approximately 50° C. in the bioassay containers and stirred thoroughly for properly mixing and then was allowed to cool for 30 min. The solidified diet was cut into equal pieces, and then each piece was transferred in one cell in Bio-assay trays. A single third instar starved larva was released into each of these cells of bioassay trays and the tray was covered with the lid. The bio-assay trays were kept under laboratory conditions at a temperature of 25° C. and Relative Humidity of 70%. Observations on dead, moribund and live larvae were recorded at 96 h after the release of larvae. Percent mortality was calculated by combining dead and moribund larvae. The following compound numbers
Regarding `COc1cc(C(=O)Nc2c(C)cc3ccnn3c2C(=O)NCCC(C)C)n(-c2ncccc2Cl)n1` [Compound 211, 6-(1-(3-chloropyridin-2-yl)-3-methoxy-1H-pyrazole-5-carboxamido)-N-isopentyl-5-methylpyrazolo[1,5-a]pyridine-7-carboxamide], the mortality at 300 ppm was more than 70%.

Consider `CCCNC(=O)c1c(NC(=O)c2cc(Cn3nnc(C(F)(F)F)n3)nn2-c2ncccc2Cl)c(Cl)cc2ccnn12` [Compound 155, 5-chloro-6-(1-(3-chloropyridin-2-yl)-3-((5-(trifluoromethyl)-2H-tetrazol-2-yl)methyl)-1H-pyrazole-5-carboxamido)-N-propylpyrazolo[1,5-a]pyridine-7-carboxamide], for which the mortality at 300 ppm is more than 70%.

Regarding `Cc1cc2ccnn2c(C(=O)NOC(C)C)c1NC(=O)c1cc(OCC(F)(F)F)nn1-c1ncccc1Cl` [Compound 116, 6-(1-(3-chloropyridin-2-yl)-3-(2,2,2-trifluoroethoxy)-1H-pyrazole-5-carboxamido)-N-isopropoxy-5-methylpyrazolo[1,5-a]pyridine-7-carboxamide], the mortality at 300 ppm was more than 70%.

Consider `COc1cc(C(=O)Nc2c(C)cc3ccnn3c2C(=O)NCC2CCCCO2)n(-c2ncccc2Cl)n1` (centres unmarked) [Compound 213, 6-(1-(3-chloropyridin-2-yl)-3-methoxy-1H-pyrazole-5-carboxamido)-5-methyl-N-((tetrahydro-2H-pyran-2-yl)methyl)pyrazolo[1,5-a]pyridine-7-carboxamide], for which the mortality at 300 ppm is more than 70%.

Take `Cc1cc2ccnn2c(C(=O)NC(C)C(C)C)c1NC(=O)c1cc(Br)nn1-c1ncccc1Cl` (centres unmarked) [Compound 191, 6-(3-bromo-1-(3-chloropyridin-2-yl)-1H-pyrazole-5-carboxamido)-5-methyl-N-(3-methylbutan-2-yl)pyrazolo[1,5-a]pyridine-7-carboxamide]: the mortality at 300 ppm is more than 70%.

Regarding `Cc1cc2ccnn2c(C(=O)NC2(C)CC2)c1NC(=O)c1cc(Br)nn1-c1ncccc1Cl` [Compound 172, 6-(3-bromo-1-(3-chloropyridin-2-yl)-1H-pyrazole-5-carboxamido)-5-methyl-N-(1-methylcyclopropyl)pyrazolo[1,5-a]pyridine-7-carboxamide], the mortality at 300 ppm was more than 70%.

`COc1cc(C(=O)Nc2c(Br)cc3ccnn3c2C(=O)NCC2CC2)n(-c2ncccc2Cl)n1` [Compound 123, 5-bromo-6-(1-(3-chloropyridin-2-yl)-3-methoxy-1H-pyrazole-5-carboxamido)-N-(cyclopropylmethyl)pyrazolo[1,5-a]pyridine-7-carboxamide]: the mortality at 300 ppm was more than 70%.

As for `Cc1cc2ccnn2c(C(=O)NCC2CCCC2)c1NC(=O)c1cc(Br)nn1-c1ncccc1Cl` [Compound 194, 6-(3-bromo-1-(3-chloropyridin-2-yl)-1H-pyrazole-5-carboxamido)-N-(cyclopentylmethyl)-5-methylpyrazolo[1,5-a]pyridine-7-carboxamide], the mortality at 300 ppm was more than 70%.

As for `Cc1cc2ccnn2c(C(=O)NCC(C)(C)C)c1NC(=O)c1cc(Br)nn1-c1ncccc1Cl` [Compound 175, 6-(3-bromo-1-(3-chloropyridin-2-yl)-1H-pyrazole-5-carboxamido)-5-methyl-N-neopentylpyrazolo[1,5-a]pyridine-7-carboxamide], the mortality at 300 ppm is more than 70%.

On to `COc1cc(C(=O)Nc2c(Br)cc3ccnn3c2C(=O)NC2CC2)n(-c2ncccc2Cl)n1` [Compound 122, 5-bromo-6-(1-(3-chloropyridin-2-yl)-3-methoxy-1H-pyrazole-5-carboxamido)-N-cyclopropylpyrazolo[1,5-a]pyridine-7-carboxamide], for which the mortality at 300 ppm is more than 70%.

In the case of `COc1cc(C(=O)Nc2c(C)cc3ccnn3c2C(=O)NCc2nccs2)n(-c2ncccc2Cl)n1` [Compound 204, 6-(1-(3-chloropyridin-2-yl)-3-methoxy-1H-pyrazole-5-carboxamido)-5-methyl-N-(thiazol-2-ylmethyl)pyrazolo[1,5-a]pyridine-7-carboxamide], the mortality at 300 ppm was more than 70%.

For the molecule `CCCNC(=O)c1c(NC(=O)c2cc(OC)nn2-c2ncccc2Cl)c(Br)cc2ccnn12` [Compound 120, 5-bromo-6-(1-(3-chloropyridin-2-yl)-3-methoxy-1H-pyrazole-5-carboxamido)-N-propylpyrazolo[1,5-a]pyridine-7-carboxamide], the mortality at 300 ppm was more than 70%.

With `O=C(Nc1c(Cl)cc2ccnn2c1C(=O)NCC(F)(F)F)c1cc(Br)nn1-c1ncccc1Cl` [Compound 143, 6-(3-bromo-1-(3-chloropyridin-2-yl)-1H-pyrazole-5-carboxamido)-5-chloro-N-(2,2,2-trifluoroethyl)pyrazolo[1,5-a]pyridine-7-carboxamide], the mortality at 300 ppm was more than 70%.

With `COCCNC(=O)c1c(NC(=O)c2cc(OC3CSC3)nn2-c2ncccc2Cl)c(C)cc2ccnn12` [Compound 161, 6-(1-(3-chloropyridin-2-yl)-3-(thietan-3-yloxy)-1H-pyrazole-5-carboxamido)-N-(2-methoxyethyl)-5-methylpyrazolo[1,5-a]pyridine-7-carboxamide], the mortality at 300 ppm was more than 70%.

`CONC(=O)c1c(NC(=O)c2cc(OC)nn2-c2ncccc2Cl)c(Br)cc2ccnn12` [Compound 124, 5-bromo-6-(1-(3-chloropyridin-2-yl)-3-methoxy-1H-pyrazole-5-carboxamido)-N-methoxypyrazolo[1,5-a]pyridine-7-carboxamide]: the mortality at 300 ppm is more than 70%.

The test system of a further experiment is Plutella xylostella. The experiment can be described thus: whole plant or invertebrate. The experiment is classed as in vivo. The conditions noted are these: foliar, cabbage leaf dip, second instar larvae, dead and moribund combined, 72 h after release. As to the method:
as §1, §2
Leaf dip method was used for screening, wherein the required quantity of the compounds were weighed and dissolved in the test solution into the tube and vortex at 2000 rpm with Zirconia beads for 90 min for proper mixing, then mixed with 0.01% Triton-X solution to get the desired test concentration. Cabbage leaves were dipped in the solution for 10 seconds, shade dried for 20 min and then transferred to bioassay trays. Single second instar larva was released into each cell and the tray was covered with lid. The bio-assay trays were kept under laboratory conditions at a temperature of 25° C. and relative humidity of 70%. Observations on dead, moribund and live larvae were recorded at 72 h after the release. Percent mortality was calculated by combining dead and moribund larvae. The following compound num.
With `Cc1cc2ccnn2c(C(=O)NOC(C)C)c1NC(=O)c1cc(OCC(F)(F)F)nn1-c1ncccc1Cl` [Compound 116, 6-(1-(3-chloropyridin-2-yl)-3-(2,2,2-trifluoroethoxy)-1H-pyrazole-5-carboxamido)-N-isopropoxy-5-methylpyrazolo[1,5-a]pyridine-7-carboxamide], the mortality at 300 ppm was more than 70%.

For the molecule `CNC(=O)c1c(NC(=O)c2cc(C(F)(F)F)nn2-c2ncccc2Cl)c(Br)cc2ccnn12` [Compound 104, 5-bromo-6-(1-(3-chloropyridin-2-yl)-3-(trifluoromethyl)-1H-pyrazole-5-carboxamido)-N-methylpyrazolo[1,5-a]pyridine-7-carboxamide], the mortality at 300 ppm is more than 70%.

Turning to `CCC(CC)NC(=O)c1c(NC(=O)c2cc(Br)nn2-c2ncccc2Cl)c(C)cc2ccnn12` [Compound 185, 6-(3-bromo-1-(3-chloropyridin-2-yl)-1H-pyrazole-5-carboxamido)-5-methyl-N-(pentan-3-yl)pyrazolo[1,5-a]pyridine-7-carboxamide], the mortality at 300 ppm is more than 70%.

Take `CCNC(=O)c1c(NC(=O)c2cc(OC3CSC3)nn2-c2ncccc2Cl)c(C)cc2ccnn12` [Compound 144, 6-(1-(3-chloropyridin-2-yl)-3-(thietan-3-yloxy)-1H-pyrazole-5-carboxamido)-N-ethyl-5-methylpyrazolo[1,5-a]pyridine-7-carboxamide]: the mortality at 300 ppm was more than 70%.

Take `COCCNC(=O)c1c(NC(=O)c2cc(C(F)(F)F)nn2-c2ncccc2Cl)c(C)cc2ccnn12` [Compound 118, 6-(1-(3-chloropyridin-2-yl)-3-(trifluoromethyl)-1H-pyrazole-5-carboxamido)-N-(2-methoxyethyl)-5-methylpyrazolo[1,5-a]pyridine-7-carboxamide]: the mortality at 300 ppm was more than 70%.

Turning to `CCCNC(=O)c1c(NC(=O)c2cc(OCC(F)(F)F)nn2-c2ncccc2Cl)c(C)cc2ccnn12` [Compound 11, 6-(1-(3-chloropyridin-2-yl)-3-(2,2,2-trifluoroethoxy)-1H-pyrazole-5-carboxamido)-5-methyl-N-propylpyrazolo[1,5-a]pyridine-7-carboxamide], the mortality at 300 ppm is more than 70%.

As for `Cc1cc2ccnn2c(C(=O)NC2CONC2=O)c1NC(=O)c1cc(C(F)(F)F)nn1-c1ncccc1Cl` (centres unmarked) [Compound 128, 6-(1-(3-chloropyridin-2-yl)-3-(trifluoromethyl)-1H-pyrazole-5-carboxamido)-5-methyl-N-(3-oxoisoxazolidin-4-yl)pyrazolo[1,5-a]pyridine-7-carboxamide], the mortality at 300 ppm is more than 70%.

Consider `COc1cc(C(=O)Nc2c(C)cc3ccnn3c2C(=O)NC(C)CCC(C)C)n(-c2ncccc2Cl)n1` (centres unmarked) [Compound 210, 6-(1-(3-chloropyridin-2-yl)-3-methoxy-1H-pyrazole-5-carboxamido)-5-methyl-N-(5-methylhexan-2-yl)pyrazolo[1,5-a]pyridine-7-carboxamide], for which the mortality at 300 ppm is more than 70%.

The record behind these values is US12024510B2, “Pyrazolopyridine-diamides, their use as insecticide and processes for preparing the same” (PI INDUSTRIES LTD., priority 2017, dated 2024).
